Test results: paper PMC3847553, “Kinetic properties of “dual” orexin receptor antagonists at OX1R and OX2R orexin receptors” (Frontiers in Neuroscience, 2013)

Assays:
rat OX1R = target: T1, rat OX1R (Rattus norvegicus, UniProt P56718); test: FLIPR orexin A-stimulated calcium accumulation, rat OX1R; type: cell-based; settings: HEK cells
T1 construct: expressed in transfected cells; host or cells: HEK; cells from GNF, San Diego
T1 sequence (P56718 1-416): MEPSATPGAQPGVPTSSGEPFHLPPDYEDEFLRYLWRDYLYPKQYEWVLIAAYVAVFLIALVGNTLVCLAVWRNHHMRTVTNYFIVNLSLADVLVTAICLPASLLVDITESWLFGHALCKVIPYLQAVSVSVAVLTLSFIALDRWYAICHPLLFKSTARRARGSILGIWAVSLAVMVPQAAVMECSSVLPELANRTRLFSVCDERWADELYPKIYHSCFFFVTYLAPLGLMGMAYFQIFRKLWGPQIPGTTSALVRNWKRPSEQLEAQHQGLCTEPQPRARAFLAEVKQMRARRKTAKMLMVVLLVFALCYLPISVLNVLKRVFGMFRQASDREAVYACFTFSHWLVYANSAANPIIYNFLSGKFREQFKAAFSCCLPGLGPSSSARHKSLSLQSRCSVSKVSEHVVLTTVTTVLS
Description: (§1) Chinese Hamster Ovary (CHO) cells stably transfected with the cDNA encoding the human OX1R (CHO-hOX1) or OX2R (CHO-hOX2) were used (kindly provided by T. Cremer and Dr. S. Geisse, NIBR Basel, Switzerland). For measurements of calcium accumulation using FLIPR® (Fluorescent Imaging Plate Reader) assay, CHO or Human Embryonic Kidney (HEK) cells stably expressing mouse, rat or human OX1R or OX2R (kindly provided by Dr. A. Chen, GNF, San Diego, CA, USA) were used. All cells were cultured in 1:1 Dulbecco's Modified Eagle's Medium (DMEM)/Ham's F12 Nutrients Mixture (F12) supplemented with 10% (v/v) fetal bovine serum (FBS), 100 μ/ml (100 g/ml)/streptomycin (100 μg/ml), Fungizone (250 μg/ml), and Geneticin (G418, 50 mg/ml). Cells were maintained in a humidified incubator at 37°C in 5% CO2. For crude cell membrane preparations, cells were washed and harvested in 10 mM HEPES (pH 7.5), and centrifuged at 4°C for 5 min at 2500 g. The cell pellet was either stored at −80°C or used directly.
Cells expressing either human, rat or mouse OX1R or OX2R were seeded at 8,000 cells/well in black 384 well clear bottom plates and incubated overnight at 37°C. The following day, medium was discarded and cells loaded with 50 μ l of 1 mM Fluo-4 AM (Invitrogen F14202) in dimethyl sulfoxide in working buffer (Hanks' balanced salt solution, 10 mM HEPES) and incubated for 60 min at 37°C. The loading buffer was removed and cells were washed with 100 μ l working buffer containing […], 0.1% BSA, and 2.5 mM Probenecid (pH 7.4) to remove the excess Fluo-4 AM. […] The assay plate was then transferred to the Molecular Devices-FLIPR384. The baseline calcium signal was recorded for 10 s, then the antagonist of interest was injected (10 μl at 3 times the final concentration) and the calcium signal recorded every second for 1 min, then every 2 s 40 times. Plates were then incubated at room temperature for 30 min, 1, 2, or 4 h.

human OX2R = target: T2, human OX2R (Homo sapiens, UniProt O43614); test: [3H]-BBAC competition binding over time, CHO-hOX2 membranes; settings: competition for 4.6 nM [3H]-BBAC, 15 min to 4 h, human OX2R
T2 construct: expressed in transfected cells; host or cells: CHO; cells from GNF, San Diego
T2 sequence (O43614 1-444): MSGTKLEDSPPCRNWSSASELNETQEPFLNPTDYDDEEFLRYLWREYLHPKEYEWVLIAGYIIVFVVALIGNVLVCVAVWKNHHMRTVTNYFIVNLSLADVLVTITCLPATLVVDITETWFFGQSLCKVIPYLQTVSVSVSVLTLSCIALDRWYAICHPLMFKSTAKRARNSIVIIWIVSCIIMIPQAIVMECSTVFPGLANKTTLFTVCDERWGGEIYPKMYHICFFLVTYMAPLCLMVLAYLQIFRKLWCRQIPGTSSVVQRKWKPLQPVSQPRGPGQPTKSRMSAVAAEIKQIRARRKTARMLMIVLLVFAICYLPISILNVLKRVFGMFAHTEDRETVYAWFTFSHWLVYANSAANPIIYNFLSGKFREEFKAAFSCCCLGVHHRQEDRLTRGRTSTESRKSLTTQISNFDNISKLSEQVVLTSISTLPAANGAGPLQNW
Text: as §1, with “All cells were cultured in 1:1 Dulbecco's Modified Eagle's Medium (DMEM)/Ham's F12 Nutrients Mixture (F12) supplemented with 10% (v/v) fetal bovine serum (FBS), 100 μ/ml (100 g/ml)/streptomycin (100 μg/ml), Fungizone (250 μg/ml), and Geneticin (G418, 50 mg/ml).” left out
Cell membranes were resuspended in binding assay buffer at 4°C (10 mM HEPES, pH 7.5, 0.5% (w/v) bovine serum albumin (BSA), 5 mM MgCl2, 1 mM CaCl2, and 0.05% Tween 20) and homogenized with a Polytron homogenizer at 50 Hz for 20 s. […] Radioactivity was quantified using a TopCount™ microplate counter (Perkin Elmer).
All data was analyzed using GraphPad Prism 4.0 (GraphPad, San Diego, USA). The saturation data was fit to a non-linear regression model for saturation binding with consideration for one site binding. […] Competition binding data was fit to a non-linear regression model for competition binding with consideration for variable one site binding with a non-fixed Hill slope.

REM sleep = test system: REM sleep; set-up: method as in Bettica et al., 2012b, 2012c; settings: 10, 30, or 60 mg; healthy volunteers and insomnia patients; ref Bettica et al., 2012b, 2012c; cited from earlier work

SMILES | Ki (rat OX1R; antagonist incubation 30 min) | Ki (rat OX1R; antagonist incubation 1 h) | Ki (rat OX1R; antagonist incubation 2 h) | Ki (rat OX1R; antagonist incubation 4 h) | effect of incubation time on competition curves (human OX2R) | REM duration (REM sleep) | latency to REM (REM sleep)
CNC(=O)[C@@H](c1ccccc1)N1CCc2cc(OC)c(OC)cc2[C@@H]1CCc1ccc(C(F)(F)F)cc1 [Almorexant] | 12.6 nM | 12.6 nM | 11.2 nM | 17.4 nM | substantially | – | –
Cc1ccc(-c2ncccn2)c(C(=O)N2C[C@H](COc3ccc(F)cn3)CC[C@H]2C)c1 [Filorexant] | 0.759 nM | 0.617 nM | 0.501 nM | 1.2 nM | shifted to the left over time, even up to 4 h | – | –
COc1ccnc(N2CCC3(CCCN(Cc4c[nH]c5ccccc45)C3=O)CC2)n1 [IPSU, 2-((1H-Indol-3-yl)methyl)-9-(4-methoxypyrimidin-2-yl)-2,9-diazaspiro[5.5]undecan-1-one] | 224 nM | 240 nM | 275 nM | 562 nM | do not show time-dependency | – | –
Cc1nc(C(=O)N2CCCC[C@H]2CNC(=O)c2cccc3occc23)c(-c2ccc(F)cc2)s1 [SB-649868] | 0.257 nM | 0.126 nM | 0.0676 nM | 0.0724 nM | binding appeared to be rather stable | increases REM duration | decreases latency to REM
Cc1ccc(-n2nccn2)c(C(=O)N2CCN(c3nc4cc(Cl)ccc4o3)CC[C@H]2C)c1 [Suvorexant] | – | – | – | – | shifted to the left over time | – | –
